Consider 1 compound from US7105669B1, “Quinazoline derivatives” (AstraZeneca AB, priority 1999, dated 2006).

SMILES strings stand for the structures. pIC50: −log10 of the molar value.

For one assay, the system named is MCF7 cells. Description: In vitro cell cycle analysis assay (FACS, propidium iodide). The class given is cell-based, human. The conditions noted are these: 12.76 μM, 24 hours. Here is the method: This assay determines the ability of a test compound to arrest cells in specific phases of the cell cycle. Many different mammalian cell lines could be used in this assay and MCF7 cells are included here as an example. MCF-7 cells were seeded at 3×10^5 cells per T25 flask (Costar) in 5 ml DMEM (no phenol red 10% FCS, 1% L-glutamine 1% penicillin/streptomycin). Flasks were then incubated overnight in a humidified 37° C. incubator with 5% CO2. The following day 1 ml of DMEM (no phenol red 10% FCS, 1% L-glutamine 1% penicillin/streptomycin) carrying the appropriate concentration of test compound solubilised in DMSO was added to the flask. A no compound control treatments was also included (0.5% DMSO). The cells were then incubated for a defined time (usually 24 hours) with compound. After this time the media was aspirated from the cells and they were washed with 5 ml of prewarmed (37° C.) sterile PBSA, then detached from the flask by brief incubation with trypsin and followed by resuspension in 10 ml of 1% Bovine Serum Albumin (BSA, Sigma-Aldrich Co.) in sterile PBSA. The samples were then centrifuged at 2200 rpm for 10 min. The supernatant was aspirated and the cell pellet was resuspended in 200 μl of 0.1% (w/v) Tris sodium citrate, 0.0564% (w/v) NaCl, 0.03% (v/v) Nonidet NP40, [pH 7.6]. Propridium Iodide (Sigma Aldrich Co.) was added to 40 μg/ml and RNAase A (Sigma Alrich Co.) to 100 μg/ml. The cells were then incubated at 37° C. for 30 minutes. The samples were centrifuged at 2200 rpm for 10 min, the supernatant removed and the remaining pellet (nuclei) resuspended in 200 μl of sterile PBSA. […] The samples were then transferred to LPS tubes and DNA content per cell analysed by Fluorescence activated cell sorting (FACS) using a FACScan flow cytometer (Becton Dickinson). Typically 25000 events were counted and recorded using CellQuest v1.1 software (Verity Software). Cell cycle distribution of the population was calculated using Modfit software (Verity Software) and expressed as percentage of cells in G0/G1, S and G2/M phases of the cell cycle. […]

The test system of assay [1] is MCF-7 cells. Kind of assay: In vitro cell proliferation assay, Assay 2 (BrdU incorporation). The conditions noted are these: Homo sapiens, MCF7; MCF-7, 48 hours with compound, 2 hour BrdU labelling; read-out: concentration giving 50% inhibition of BrdU incorporation. The class given is cell-based. From the text: (§1) These and other assays can be used to determine the ability of a test compound to inhibit the growth of adherent mammalian cell lines, for example the human tumour cell line MCF7.
This assay determines the ability of a test compound to inhibit the incorporation of the thymidine analogue, 5′-bromo-2′-deoxy-uridine (BrdU) into cellular DNA. MCF-7 or other adherent cells were typically seeded at 0.8×10^4 cells per well in DMEM (Sigma Aldrich) without phenol red, plus 10% foetal calf serum, 1% L-glutamine and 1% penicillin/streptomycin (50 μl/well) in 96 well tissue culture treated 96 well plates (Costar) and allowed to adhere overnight. […] The optical density of the wells was then determined at 690 nm wavelength using a Titertek Multiscan plate reader. […]
Background: Incorporation of labelled thymidine or its analogues reports DNA synthesis.

The next assay addresses T1, aurora2 kinase (Homo sapiens, UniProt O14965).
T1 construct: made in house; host or cells: Spodoptera frugiperda Sf21 insect cells (baculovirus, pFastBac HTc)
T1 sequence (O14965 1-403): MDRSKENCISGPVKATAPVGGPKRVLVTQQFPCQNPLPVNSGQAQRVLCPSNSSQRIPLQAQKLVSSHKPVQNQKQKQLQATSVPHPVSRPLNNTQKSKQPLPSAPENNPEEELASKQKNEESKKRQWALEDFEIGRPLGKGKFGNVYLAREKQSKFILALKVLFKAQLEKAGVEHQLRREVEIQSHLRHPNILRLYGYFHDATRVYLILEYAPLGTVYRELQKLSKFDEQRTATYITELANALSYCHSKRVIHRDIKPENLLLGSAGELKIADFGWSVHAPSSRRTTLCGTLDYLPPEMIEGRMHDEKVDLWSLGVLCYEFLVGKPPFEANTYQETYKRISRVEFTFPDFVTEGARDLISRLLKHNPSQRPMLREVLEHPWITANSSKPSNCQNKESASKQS
Description: In vitro aurora2 kinase inhibition test. The class given is biochemical.

The test system of assay [2] is MCF-7 cells. Description: In vitro cell proliferation assay, Assay 1 (CyQUANT cell density). The conditions noted are these: Homo sapiens, MCF7, 72 h, MCF-7, 3 days with compound, read-out: concentration giving 50% inhibition of cell proliferation. The class given is cell-based.
Description: as §1
MCF-7 (ATCC HTB-22) or other adherent cells were typically seeded at 1×10^3 cells per well (excluding the peripheral wells) in DMEM (Sigma Aldrich) without phenol red, plus 10% foetal calf serum, 1% L-glutamine and 1% penicillin/streptomycin in 96 well tissue culture treated clear plates (Costar). The following day (day 1), the media was removed from a no treatment control plate and the plate stored at −80° C. The remaining plates were dosed with compound (diluted from 10 mM stock in DMSO using DMEM (without phenol red, 10% FCS, 1% L-glutamine, 1% penicillin/streptomycin). Untreated control wells were included on each plate. After 3 days in the presence/absence of compound (day 4) the media was removed and the plates stored at −80° C. Twenty four hours later the plates were thawed at room temperature and cell density determined using the CyQUANT cell proliferation assay kit (c-7026/c-7027 Molecular Probes Inc.) according to manufacturers directions. Briefly, 200 μl of a cell lysis/dye mixture (10 μl of 20× cell lysis buffer B, 190 μl of sterile water, 0.25 μl of CYQUANT GR dye) was added to each well and the plates incubated at room temperature for 5 minutes in the dark. […]

For `COc1cc2ncnc(Nc3ccc(/C=C/C(=O)NC4CCCC(C)C4)cc3)c2cc1OC` (stereo not drawn) [Compound 18], in the assay on MCF7 cells, the “% Cells in G1” value was 30.96%. Further, the “% Cells in G2/M” value with MCF7 cells is 49.62%. Moreover, the “% Cells in S” value in the assay with MCF7 cells came out at 19.42%. For the same compound, the values for the pIC50 in the assay with MCF-7 cells [1], on aurora2 kinase and in the assay on MCF-7 cells [2] were 5.61, 6.93 and 5.20, respectively.
